Consider 24 compounds from patent publication US20250346593A1, “IMIDAZO(1,2-1)PYRIDINE DERIVATIVES AS RIPK2 INHIBITORS” (Interline Therapeutics, Inc., priority 2022, published 2025).

Experiment [1] has as its system NF-κB pathway (SEAP) in THP1-Dual cells. Kind of experiment: THP-1 Dual cell SEAP assay (L18-MDP stimulated). The format is cell-based. The settings on record: Homo sapiens, THP1-Dual, read-out: NFkB THP1 IC50.
The target in experiment [2] is GST-RIPK2 fusion protein (human RIPK2 amino acids 1-310) (Homo sapiens (Human), UniProt O43353). Kind of experiment: RIPK2 binding competition assay (TR-FRET, Tracer 199). (In general: In TR-FRET formats the signal depends on donor and acceptor labels being close together.)
Where [3] appears, read: read-out: RIPK2 IC50, RIPK2 binding competition assay.

Read-outs that look alike come from different tables or passages of the source.

Chain of GST-RIPK2 fusion protein (human RIPK2 amino acids 1-310) (O43353 1-310): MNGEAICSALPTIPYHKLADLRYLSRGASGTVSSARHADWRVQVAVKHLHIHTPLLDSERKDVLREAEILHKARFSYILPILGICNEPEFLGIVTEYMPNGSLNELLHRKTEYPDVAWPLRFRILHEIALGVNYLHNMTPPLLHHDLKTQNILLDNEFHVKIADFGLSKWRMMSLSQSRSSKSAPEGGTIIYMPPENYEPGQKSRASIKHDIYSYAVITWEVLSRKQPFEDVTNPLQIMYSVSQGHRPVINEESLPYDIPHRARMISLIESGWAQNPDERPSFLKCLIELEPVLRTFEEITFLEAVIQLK

Broadly, the IC50 is the concentration that inhibits the measured activity by half. For `COc1cn2ncc(-c3cc(F)c(N)nc3F)c2cc1S(=O)(=O)C(C)(C)C` [Example 100, 5-(5-(tert-butylsulfonyl)-6-methoxypyrazolo[1,5-a]pyridin-3-yl)-3,6-difluoropyridin-2-amine], the IC50 in experiment [1] lay within 250 to 1000 nM; in experiment [2], 2.5 to 20 nM.
Take `COc1cc2ncc(-c3ccc(N4CCOCC4)nc3F)n2cc1S(=O)(=O)C(C)(C)C` [Example 101, 4-(5-(6-(tert-butylsulfonyl)-7-methoxyimidazo[1,2-a]pyridin-3-yl)-6-fluoropyridin-2-yl)morpholine]: the results for the IC50 in experiment [1] and in experiment [2] (setting [3]) were over 1000 nM and over 20 nM, respectively.
In the case of `COc1cc2ncc(-c3cc(Cl)c(N)nc3OC)n2cc1S(=O)(=O)C(C)(C)C` [Example 102, 5-(6-(tert-butylsulfonyl)-7-methoxyimidazo[1,2-a]pyridin-3-yl)-3-chloro-6-methoxypyridin-2-amine], the IC50 in experiment [1] was 250 to 1000 nM; in experiment [2], 2.5 to 20 nM.
Turning to `COc1cc2ncc(-c3cnc(N)cn3)n2cc1S(=O)(=O)C(C)(C)C` [Example 103, 5-(6-(tert-butylsulfonyl)-7-methoxyimidazo[1,2-a]pyridin-3-yl)pyrazin-2-amine], the values for the IC50 in experiment [1] and in experiment [2] (setting [3]) were over 1000 nM and over 20 nM, respectively.
Take `COc1cn2ncc(-c3cc(OC)c(N)nc3F)c2cc1S(=O)(=O)C(C)(C)C` [Example 104, 5-(5-(tert-butylsulfonyl)-6-methoxypyrazolo[1,5-a]pyridin-3-yl)-6-fluoro-3-methoxypyridin-2-amine]: the concentration for half-maximal inhibition (IC50) in experiment [1] is over 1000 nM; in experiment [2], 2.5 to 20 nM.
The like results for `COc1cn2ncc(-c3cc(Cl)c(N)nc3F)c2cc1S(=O)(=O)C(C)(C)C` [Example 105, 5-(5-(tert-butylsulfonyl)-6-methoxypyrazolo[1,5-a]pyridin-3-yl)-3-chloro-6-fluoropyridin-2-amine] were, in that order, 50 to 250 nM and 2.5 to 20 nM.
The matching figures for `COc1cc2ncc(-c3cc(F)c(N)nc3OC)n2cc1S(=O)(=O)C(C)(C)C` [Example 106, 5-(6-(tert-butylsulfonyl)-7-methoxyimidazo[1,2-a]pyridin-3-yl)-3-fluoro-6-methoxypyridin-2-amine]: 250 to 1000 nM and 2.5 to 20 nM.
The matching figures for `COc1cc2ncc(-c3cc(C#N)c(N)nc3F)n2cc1S(=O)(=O)C(C)(C)C` [Example 107, 2-amino-5-(6-(tert-butylsulfonyl)-7-methoxyimidazo[1,2-a]pyridin-3-yl)-6-fluoronicotinonitrile]: over 1000 nM and 2.5 to 20 nM.
As for `COc1cc2ncc(-c3ccc(N)nc3C#N)n2cc1S(=O)(=O)C(C)(C)C` [Example 108, 6-amino-3-(6-(tert-butylsulfonyl)-7-methoxyimidazo[1,2-a]pyridin-3-yl)picolinonitrile], the concentration for half-maximal inhibition (IC50) in experiment [1] was over 1000 nM; in experiment [2] (setting [3]), over 20 nM.
The like results for `COc1cc2ncc(-c3cnc(N)c(C)n3)n2cc1S(=O)(=O)C(C)(C)C` [Example 109, 5-(6-(tert-butylsulfonyl)-7-methoxyimidazo[1,2-a]pyridin-3-yl)-3-methylpyrazin-2-amine] were, in that order, over 1000 nM and over 20 nM.
For `COc1cn2ncc(-c3cc(C#N)c(N)nc3F)c2cc1S(=O)(=O)C(C)(C)C` [Example 110, 2-amino-5-(5-(tert-butylsulfonyl)-6-methoxypyrazolo[1,5-a]pyridin-3-yl)-6-fluoronicotinonitrile], the IC50 is over 1000 nM in experiment [1] and 2.5 to 20 nM in experiment [2].
The matching figures for `COc1cc2ncc(-c3cc(F)c(N)c(C)c3F)n2cc1S(=O)(=O)C(C)(C)C` [Example 111, 4-(6-(tert-butylsulfonyl)-7-methoxyimidazo[1,2-a]pyridin-3-yl)-3,6-difluoro-2-methylaniline]: 50 to 250 nM and 1 to 2.5 nM.
The like results for `CCOc1nc(N)c(F)cc1-c1cnc2cc(OC)c(S(=O)(=O)C(C)(C)C)cn12` [Example 112, 5-(6-(tert-butylsulfonyl)-7-methoxyimidazo[1,2-a]pyridin-3-yl)-6-ethoxy-3-fluoropyridin-2-amine] were, in that order, over 1000 nM and 2.5 to 20 nM.
As to `COc1cc2ncc(-c3cc(F)c(N)nc3OC(C)C)n2cc1S(=O)(=O)C(C)(C)C` [Example 113, 5-(6-(tert-butylsulfonyl)-7-methoxyimidazo[1,2-a]pyridin-3-yl)-3-fluoro-6-isopropoxypyridin-2-amine], the IC50 was over 1000 nM in experiment [1] and over 20 nM in experiment [2] (setting [3]).
For `CCOc1cn2ncc(-c3cc(Cl)c(N)nc3F)c2cc1S(=O)(=O)C(C)(C)C` [Example 114, 5-(5-(tert-butylsulfonyl)-6-ethoxypyrazolo[1,5-a]pyridin-3-yl)-3-chloro-6-fluoropyridin-2-amine], the figures for the IC50 in experiment [1] and in experiment [2] were 50 to 250 nM and 1 to 2.5 nM, respectively.
The matching figures for `CCOc1cn2ncc(-c3cc(F)c(N)nc3F)c2cc1S(=O)(=O)C(C)(C)C` [Example 115, 5-(5-(tert-butylsulfonyl)-6-ethoxypyrazolo[1,5-a]pyridin-3-yl)-3,6-difluoropyridin-2-amine]: 250 to 1000 nM and 2.5 to 20 nM.
The like results for `CC(C)(C)S(=O)(=O)c1cn2c(-c3cc(F)c(N)nc3F)cnc2cc1OC(F)F` [Example 116, 5-(6-(tert-butylsulfonyl)-7-(difluoromethoxy)imidazo[1,2-a]pyridin-3-yl)-3,6-difluoropyridin-2-amine] were, in that order, over 1000 nM and 2.5 to 20 nM.
Take `CCOc1cc2ncc(-c3cnc(N)c(F)c3)n2cc1S(=O)(=O)C(C)C` [Example 117, 5-[6-ethoxy-5-(isopropylsulfonyl)-1,3a-diaza-3-indenyl]-3-fluoro-2-pyridylamine]: the results for the IC50 in experiment [1] and in experiment [2] (setting [3]) were over 1000 nM and over 20 nM, respectively.
Turning to `CCOc1cc2ncc(-c3cc(Cl)c(N)nc3F)n2cc1S(=O)(=O)C(C)C` [Example 118, 3-chloro-5-[6-ethoxy-5-(isopropylsulfonyl)-1,3a-diaza-3-indenyl]-6-fluoro-2-pyridylamine], the IC50 in experiment [1] fell in the range of 250 to 1000 nM; in experiment [2], 2.5 to 20 nM.
With `CCOc1cc2ncc(-c3cc(F)c(N)nc3F)n2cc1S(=O)(=O)C(C)C` [Example 119, 5-[6-ethoxy-5-(isopropylsulfonyl)-1,3a-diaza-3-indenyl]-3,6-difluoro-2-pyridylamine], the IC50 is over 1000 nM in experiment [1] and 2.5 to 20 nM in experiment [2].
As for `CCOc1cc2ncc(-c3ccc(N)nc3F)n2cc1S(=O)(=O)C(C)C` [Example 120, 5-[6-ethoxy-5-(isopropylsulfonyl)-1,3a-diaza-3-indenyl]-6-fluoro-2-pyridylamine], the 50% inhibitory concentration (IC50) in experiment [1] was over 1000 nM; in experiment [2] (setting [3]), over 20 nM.
The matching figures for `Nc1nc(F)c(-c2cnc3ccccn23)cc1F` [Example 121, 5-(1,3a-diaza-3-indenyl)-3,6-difluoro-2-pyridylamine]: over 1000 nM and over 20 nM.
The matching figures for `COc1cc2ncc(-c3cc(F)c(N)nc3F)n2cc1C1(F)CCN(C)CC1` [Example 122, 3,6-difluoro-5-[5-(4-fluoro-1-methyl-4-piperidyl)-6-methoxy-1,3a-diaza-3-indenyl]-2-pyridylamine]: over 1000 nM and over 20 nM.
The like results for `COc1cc2ncc(-c3cc(F)c(N)nc3F)n2cc1S(=O)(=O)C(C)(C)CF` [Example 123, 3,6-difluoro-5-[5-(2-fluoro-1,1-dimethylethylsulfonyl)-6-methoxy-1,3a-diaza-3-indenyl]-2-pyridylamine] were, in that order, over 1000 nM and over 20 nM.
